Blank lines part the entries; values can stand above or below the compound they belong to.
Target: T1, recombinant human CETP (Homo sapiens, UniProt P11597)
T1 construct: made in house; host or cells: CHO cells
T1 sequence (P11597 18-493): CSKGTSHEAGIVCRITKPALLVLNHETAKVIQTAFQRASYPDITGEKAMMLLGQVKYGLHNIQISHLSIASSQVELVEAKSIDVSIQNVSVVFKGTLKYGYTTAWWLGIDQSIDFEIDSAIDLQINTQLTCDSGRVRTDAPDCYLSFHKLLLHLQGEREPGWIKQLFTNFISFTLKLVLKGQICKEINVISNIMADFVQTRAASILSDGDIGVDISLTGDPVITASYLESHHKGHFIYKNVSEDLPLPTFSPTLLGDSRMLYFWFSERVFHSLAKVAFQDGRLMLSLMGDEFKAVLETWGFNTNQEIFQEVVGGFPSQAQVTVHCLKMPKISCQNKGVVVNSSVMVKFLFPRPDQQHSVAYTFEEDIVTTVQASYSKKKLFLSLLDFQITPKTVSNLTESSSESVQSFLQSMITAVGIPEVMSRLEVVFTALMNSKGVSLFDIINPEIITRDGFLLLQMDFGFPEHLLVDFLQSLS
Assay: CETP assay, CE transfer reaction (BODIPY-CE fluorescence, continuous)
Assay type: biochemical
Conditions: 3% human serum, 25° C., read-out: IC50 value as measured for the CE transfer reaction
Method: An in vitro continuous assay for determining IC50's to identify compounds that are CETP inhibitors was performed based on a modification of the method described by Epps et al. employing BODIPY®-CE as the cholesteryl ester lipid donor and BODIPY®-TG as the triglyceride lipid donor. See Epps et al. (1995) Method for measuring the activities of cholesteryl ester transfer protein (lipid transfer protein), Chem. Phys. Lipids. 77, 51-63.
Particles used in the assay were created from the following materials by probe sonication essentially as described by Epps et al. Synthetic cholesteryl ester (CE) donor HDL particles contained DOPC (Dioleoyl Phosphatidyl Choline), BODIPY®-CE (Molecular Probes C-3927), triolein (a triglyceride), dabcyl dicetylamide, (a non-diffusable quencher molecule to reduce background fluorescence) and apoHDL. Synthetic triglyceride (TG) donor HDL particles contained DOPC, BODIPY®-TG, and apoHDL. BODIPY®-TG was synthesized at room temperature from diolein and the BODIPY containing fatty acid analog 4,4-difluoro-5-(2-thienyl)-4-bora-3a,4a-diaza-s-indacene-3-dodecanoic acid (Molecular Probes) in methylene chloride in the presence of dicyclohexyl carbodimide. Dabcyl dicetylamide was made by heating dabcyl n-succinimide with dicetylamine in DMF at 95° C. overnight in the presence of diisopropylamine catalyst. Native lipoproteins from human blood were used as acceptor particles. Particles having a density less than 1.063 g/ml were collected by ultracentrifugation. These particles include VLDL, IDL, and LDL. Particle concentrations were expressed in terms of protein concentration as determined by BCA assay (Pierce, USA). Particles were stored at 4° C. until use.
Assays were performed in Dynex Microfluor 2 U-bottom black 96-well plates (Cat #7205). An assay cocktail containing CETP, 1×CETP buffer (50 mM Tris, pH 7.4, 100 mM NaCl, 1 mM EDTA), 3% human serum, and half the final concentration of acceptor particles was prepared, and 100 μL of the assay cocktail was added to each well of the plate. Test compounds in DMSO were added in a volume of […]. The plate was mixed on a plate shaker and then incubated at 25° C. for 1 hour. A second assay cocktail containing donor particles, the remaining acceptor particles and 1×CETP buffer was prepared. 47 μL of the second assay cocktail was added to the reaction wells to start the assay. Assays were performed in a final volume of 150 μL. CE transfer reactions were performed as follows: final concentrations of materials were: 2.5 ng/μL CE donor particles, 7.5 ng/μL acceptor particles (each expressed by protein content), 1×CETP buffer, 14-30 nM recombinant human CETP (expressed in CHO cells and partially purified), and up to 2% DMSO when testing compounds; reactions were followed in a fluorescence plate reader (Molecular Devices Spectramax GeminiXS) set for a 45 minute kinetic run at 25° C. which read the samples every 45 sec at Ex=480 nm, Em=511 nm, with a cutoff filter at 495 nm, photomultiplier tube setting of medium, calibration on, and 6 reads/well. TG transfer reactions were performed as described above with the exception that 2.5 ng/uL TG donor particles were used. TG transfer was measured at an excitation wavelength of 538 nm while reading emission at 568 nm every 45 sec for 45 min at 37° C. with a cutoff filter at 550 nm.
Data were evaluated by obtaining an initial rate, expressed in relative fluorescence units per second, for the pseudolinear portion of the curve, often 0-500 or 1000 sec. Comparison of the rates of samples with inhibitors to an uninhibited (DMSO only) positive control yielded a percent inhibition. A plot of percent inhibition vs. log of inhibitor concentration, fit to a Sigmoidal 4 parameter equation was used to calculate […].

IC50: 12 to 41 nM
Compound: Cc1ccc2c(c1)cc(C1=CCC(CNC(=O)c3ccc(-c4nc5cc(C#N)cc(C(C)C)c5o4)cc3)CC1)n2C(=O)OC(C)(C)C (stereo not shown) [Example 76]

IC50: 12 to 41 nM
Compound: CC(C)c1cc(C#N)cc2nc(-c3ccc(C(=O)NC[C@H]4CC[C@H](c5cc6ccccc6n5C)CC4)cc3)oc12 [Example 81]

IC50: 12 to 41 nM
Compound: CC(C)c1cc(C#N)cc2nc(-c3ccc(C(=O)NC[C@H]4CC[C@H](c5cc6ccccc6o5)CC4)cc3)oc12 [Example 82]

Second part, the compound before the results:

Compound: CC(C)c1cc(C#N)cc2nc(-c3ccc(C(=O)NC[C@H]4CC[C@H](CC(=O)Nc5cc(C(F)(F)F)ccn5)CC4)cc3)oc12 [Example 44, 4-(5-Cyano-7-isopropyl-1,3-benzoxazol-2-yl)-N-{[trans-4-(2-oxo-2-{[4-(trifluoromethyl)pyridin-2-yl]amino}ethyl)cyclohexyl]methyl}benzamide]
IC50: 12 to 41 nM

Compound: CC(C)c1cc(C#N)cc2nc(-c3ccc(C(=O)NC[C@H]4CC[C@H](CCOC(C)(C(F)(F)F)C(F)(F)F)CC4)cc3)oc12 [Example 45, 4-(5-Cyano-7-isopropyl-1,3-benzoxazol-2-yl)-N-[(trans-4-{2-[2,2,2-trifluoro-1-methyl-1-(trifluoromethyl)ethoxy]ethyl}cyclohexyl)methyl]benzamide]
IC50: 12 to 41 nM

Compound: CC(C)c1cc(C#N)cc2nc(-c3ccc(C(=O)NCC4CC=C(Cc5ccc(C(F)(F)F)cc5)CC4)cc3)oc12 (stereo not shown) [Example 47, 4-(5-Cyano-7-isopropyl-1,3-benzoxazol-2-yl)-N-({4-[4-(trifluoromethyl)benzyl]cyclohex-3-en-1-yl}methyl)benzamide]
IC50: 12 to 41 nM

Compound: CC(C)c1cc(C#N)cc2nc(-c3ccc(C(=O)NCC4(c5ccccc5)CCCCC4)cc3)oc12 [Example 48]
IC50: 12 to 41 nM

Compound: CC(C)c1cc(C#N)cc2nc(-c3ccc(C(=O)NC[C@H]4CC[C@H](c5ccc(C(F)(F)F)cc5)CC4)cc3)oc12 [Example 53]
IC50: 12 to 41 nM

Compound: CC(C)c1cc(C#N)cc2nc(-c3ccc(C(=O)NC[C@H]4CC[C@@H](c5ccc(C(C)(C)C)cc5)CC4)cc3)oc12 [Example 64]
IC50: 12 to 41 nM

Compound: CC(C)c1cc(C#N)cc2nc(-c3ccc(C(=O)NC[C@H]4CC[C@H](c5ccc(C(C)(C)C)cc5)CC4)cc3)oc12 [Example 65]
IC50: 12 to 41 nM
